Assay results taken from patent publication US11655239B2 (SHANGHAI INSTITUTE OF MATERIAL MEDICA, CHINESE ACADEMY OF …, priority 2019, dated 2023).

What was measured:
[1] = biological target: DDR2 (Homo sapiens (Human), UniProt Q16832); experiment: DDR2 enzyme activity test (ELISA); format: biochemical; settings: read-out: DDR2 IC50
Method: The optical rotation and the inhibitory activity against DDR2 enzyme of the compounds S11-A and S11-B obtained by the resolution in Example 12, and the chirally synthesized compounds S11-A′ and S11-B′ in Example 13 were tested (referred to the operation in Effect example 1), and the results are shown in Table 3 below:
Detection method: Enzyme-linked immunosorbent assay (ELISA)
Test receptor tyrosine kinase: DDR2
The kinase used in the experiment was obtained by our laboratory using the insect baculovirus expression system to express and purify the recombinant protein containing the protein kinase region; polyglutamic acid-tyrosine peptide segment [Poly(Glu, Tyr) 4:1] and sodium vanadate were purchased from Sigma; the anti-phosphorylated monoclonal antibody PY99 was purchased from Santa Cruz; horseradish peroxidase labeled goat anti-murine secondary antibody was purchased from Calbiochem; ATP and OPD were purchased from Sangon Biotech (Shanghai) Co., Ltd.; the remaining reagents were purchased from Sinopharm Chemical Reagent Co., Ltd. The reaction ELISA plate (#2592) was purchased from Corning. The full-wavelength microplate reader for experiment reading was a product of Molecular Device, model: SpectraMax 190; the experimental water was distilled water produced by Sinopharm Group.
The compound was centrifuged at 12,000 g for 5 min, and DMSO was added to prepare a 10^-2M stock solution, which was vortexed evenly, then sonicated for 10 min and stored at −40° C. for later use. During the test, the compound was diluted with DMSO from the stock solution to 100 times the test concentration (the DMSO concentration in the system was 1%).
(§1) 1) Enzyme reaction substrate Poly(Glu, Tyr) 4:1 was diluted to 20 μg/mL with potassium-free PBS (10 mM sodium phosphate buffer, 150 mM NaCl, pH 7.2-7.4), and the microtiter plate was coated with 125 μL/well and placed at 37° C. for 12-16 hours of reaction. The liquid in the well was discard. The plate was washed three times with T-PBS (potassium-free PBS containing 0.1% Tween-20, 200 μL/well), 5 minutes each time. The ELISA plate was dried in an oven at 37° C. for 1 to 2 hours.
(§2) 2) Reaction buffer (50 mM HEPES pH 7.4, 50 mM MgCl2, 0.5 mM MnCl2, 0.2 mM Na3VO4, 1 mM DTT) diluted ATP solution (49 μL) was added to each well, 1 μL of the compound to be tested was added to each well, and then 50 μL of DDR2 kinase domain recombinant protein diluted in the reaction buffer was added to start the reaction. Two control wells without ATP were set in each experiment. The plate placed on a shaker (100 rpm) at 37° C. for 1 hour of reaction. The liquid in the well was discarded and the plate was washed three times with T-PBS.
(§3) 3) Antibody PY99 dilution solution (the antibody was diluted 1:500 with T-PBS containing BSA 5 mg/mL) was added at 100 μL/well, and shaken on a shaker at 37° C. for 0.5 hour of reaction. The liquid in the well was discarded and the plate was washed three times with T-PBS.
(§4) 4) Horseradish peroxidase labeled goat anti-murine secondary antibody dilution solution (the antibody is diluted 1:2000 with T-PBS containing BSA 5 mg/ml) was added at 100 μL/well, and shaken on a shaker at 37° C. for 0.5 hour of reaction. The liquid in the well was discarded and the plate was washed three times with T-PBS.
(§5) 5) 2 mg/ml of OPD color developing solution [diluted with 0.1 M citric acid-sodium citrate buffer (pH=5.4) containing 0.03% H2O2] was added at 100 μL/well and reacted for 1 to 10 minutes at 25° C. in the dark.
(§6) 6) 2M H2SO4 was added at 50 μL/well to stop the reaction, and a tunable wavelength microplate reader VERSAmax was used for reading at a wavelength of 490 nm.
The IC50 value was obtained by four-parameter regression using the software that came with the microplate reader.

[2] = biological target: PDGFR-β (Homo sapiens (Human), UniProt P09619); experiment: Enzyme selectivity test (ELISA), PDGFR-β; format: biochemical
Method: as §1, §2, §3, §4, §5, §6
(§7) The IC50 value was obtained by four-parameter regression using the software that came with the microplate reader. […]

[3] = biological target: FGFR-4 (Homo sapiens (Human), UniProt P22455); experiment: Enzyme selectivity test (ELISA), FGFR-4; format: biochemical
Method: as §1
(§8) 2) Reaction buffer (50 mM HEPES pH 7.4, 50 mM MgCl2, 0.5 mM MnCl2, 0.2 mM Na3VO4, 1 mM DTT) diluted ATP solution (49 μL) was added to each well, 1 μL of the compound to be tested was added to each well, and then 50 μL of DDR2 kinase domain recombinant protein diluted in the reaction buffer was added to start the reaction. Two control wells without ATP were set in each experiment. The plate placed on a shaker (100 rpm) at 37° C. for 1 hour of reaction. The liquid in the well was discarded and the plate was washed three times with T-PBS. […]
as §6, §7

[4] = biological target: FGFR-1 (Homo sapiens (Human), UniProt P11362); experiment: Enzyme selectivity test (ELISA), FGFR-1; format: biochemical
Method: as §1, §2, §3, §4, §5, §6, §7

[5] = biological target: Src (Homo sapiens (Human), UniProt P12931); experiment: Enzyme selectivity test (ELISA), Src; format: biochemical
Method: as §1, §2, §3, §4, §5, §6, §7

[6] = biological target: FGFR-3 (Homo sapiens (Human), UniProt P22607); experiment: Enzyme selectivity test (ELISA), FGFR-3; format: biochemical
FGFR-3, sequence (P22607 23-806, species assumed): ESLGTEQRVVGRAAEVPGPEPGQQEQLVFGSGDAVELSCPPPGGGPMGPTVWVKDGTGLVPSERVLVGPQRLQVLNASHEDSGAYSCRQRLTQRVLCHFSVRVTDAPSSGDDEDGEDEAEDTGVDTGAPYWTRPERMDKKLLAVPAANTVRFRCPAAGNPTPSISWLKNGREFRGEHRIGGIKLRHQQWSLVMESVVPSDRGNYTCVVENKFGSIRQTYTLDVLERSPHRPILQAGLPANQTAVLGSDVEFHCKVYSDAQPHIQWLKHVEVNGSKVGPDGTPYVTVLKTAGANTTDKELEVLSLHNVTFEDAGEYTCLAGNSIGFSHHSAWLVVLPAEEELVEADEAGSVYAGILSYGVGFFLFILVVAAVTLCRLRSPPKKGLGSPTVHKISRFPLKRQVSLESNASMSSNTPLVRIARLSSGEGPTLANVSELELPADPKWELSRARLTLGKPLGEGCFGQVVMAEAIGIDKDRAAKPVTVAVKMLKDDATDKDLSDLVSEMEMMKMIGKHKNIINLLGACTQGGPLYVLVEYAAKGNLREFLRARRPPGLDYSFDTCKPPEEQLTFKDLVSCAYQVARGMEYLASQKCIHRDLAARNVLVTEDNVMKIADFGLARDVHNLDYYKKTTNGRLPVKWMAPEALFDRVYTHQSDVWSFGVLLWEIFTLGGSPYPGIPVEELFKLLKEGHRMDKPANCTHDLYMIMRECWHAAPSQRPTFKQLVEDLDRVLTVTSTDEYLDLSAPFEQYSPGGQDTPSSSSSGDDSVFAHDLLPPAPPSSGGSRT
Method: as §1, §8, §6, §7

[7] = biological target: C-Kit (Homo sapiens (Human), UniProt P10721); experiment: Enzyme selectivity test (ELISA), C-Kit; format: biochemical
Method: as §1, §2, §3, §4, §5, §6, §7

[8] = biological target: EPH-A2 (Homo sapiens (Human), UniProt P29317); experiment: Enzyme selectivity test (ELISA), EPH-A2; format: biochemical
EPH-A2, sequence (P29317 24-976, species assumed): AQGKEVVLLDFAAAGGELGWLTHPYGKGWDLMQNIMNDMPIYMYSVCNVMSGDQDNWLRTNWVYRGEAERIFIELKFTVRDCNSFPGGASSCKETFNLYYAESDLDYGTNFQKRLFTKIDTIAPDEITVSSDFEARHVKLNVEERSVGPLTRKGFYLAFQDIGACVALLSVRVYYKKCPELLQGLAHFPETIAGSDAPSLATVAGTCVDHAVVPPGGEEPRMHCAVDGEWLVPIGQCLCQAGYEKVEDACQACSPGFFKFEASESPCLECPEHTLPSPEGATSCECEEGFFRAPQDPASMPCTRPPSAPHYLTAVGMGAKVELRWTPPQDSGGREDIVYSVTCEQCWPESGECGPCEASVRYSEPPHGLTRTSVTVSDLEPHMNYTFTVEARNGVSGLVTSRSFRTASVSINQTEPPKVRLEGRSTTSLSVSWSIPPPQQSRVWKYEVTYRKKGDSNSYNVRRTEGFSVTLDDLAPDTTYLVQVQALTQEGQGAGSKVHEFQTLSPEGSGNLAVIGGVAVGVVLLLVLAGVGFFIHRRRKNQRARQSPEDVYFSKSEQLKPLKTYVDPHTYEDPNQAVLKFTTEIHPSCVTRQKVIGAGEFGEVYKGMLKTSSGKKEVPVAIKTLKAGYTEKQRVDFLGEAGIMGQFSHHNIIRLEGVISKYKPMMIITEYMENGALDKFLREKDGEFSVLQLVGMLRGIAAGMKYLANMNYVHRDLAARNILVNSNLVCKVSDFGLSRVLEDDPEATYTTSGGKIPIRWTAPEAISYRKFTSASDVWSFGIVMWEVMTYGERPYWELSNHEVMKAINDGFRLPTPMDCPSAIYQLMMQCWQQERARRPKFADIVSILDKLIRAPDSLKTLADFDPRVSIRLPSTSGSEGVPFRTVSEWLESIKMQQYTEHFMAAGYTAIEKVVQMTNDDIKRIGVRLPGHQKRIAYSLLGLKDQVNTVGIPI
Method: as §1, §2, §3, §4, §5, §6, §7

[9] = biological target: IGF-1R (Homo sapiens (Human), UniProt P08069); experiment: Enzyme selectivity test (ELISA), IGF-1R; format: biochemical
Method: as §1, §2, §3, §4, §5, §6, §7

[10] = biological target: PDGFR-α (Homo sapiens (Human), UniProt P16234); experiment: Enzyme selectivity test (ELISA), PDGFR-α; format: biochemical
Method: as §1, §2, §3, §4, §5, §6, §7

[11] = biological target: RET (Homo sapiens (Human), UniProt P07949); experiment: Enzyme selectivity test (ELISA), RET; format: biochemical
Method: as §1, §2, §3, §4, §5, §6, §7

[12] = biological target: Flt-3 (Homo sapiens (Human), UniProt P36888); experiment: Enzyme selectivity test (ELISA), Flt-3; format: biochemical
Method: as §1, §2, §3, §4, §5, §6, §7

[13] = biological target: KDR (Homo sapiens (Human), UniProt P35968); experiment: Enzyme selectivity test (ELISA), KDR; format: biochemical
Method: as §1, §2, §3, §4, §5, §6, §7

[14] = biological target: ALK (Homo sapiens (Human), UniProt Q9UM73); experiment: Enzyme selectivity test (ELISA), ALK; format: biochemical
ALK, sequence (Q9UM73 19-1620, species assumed): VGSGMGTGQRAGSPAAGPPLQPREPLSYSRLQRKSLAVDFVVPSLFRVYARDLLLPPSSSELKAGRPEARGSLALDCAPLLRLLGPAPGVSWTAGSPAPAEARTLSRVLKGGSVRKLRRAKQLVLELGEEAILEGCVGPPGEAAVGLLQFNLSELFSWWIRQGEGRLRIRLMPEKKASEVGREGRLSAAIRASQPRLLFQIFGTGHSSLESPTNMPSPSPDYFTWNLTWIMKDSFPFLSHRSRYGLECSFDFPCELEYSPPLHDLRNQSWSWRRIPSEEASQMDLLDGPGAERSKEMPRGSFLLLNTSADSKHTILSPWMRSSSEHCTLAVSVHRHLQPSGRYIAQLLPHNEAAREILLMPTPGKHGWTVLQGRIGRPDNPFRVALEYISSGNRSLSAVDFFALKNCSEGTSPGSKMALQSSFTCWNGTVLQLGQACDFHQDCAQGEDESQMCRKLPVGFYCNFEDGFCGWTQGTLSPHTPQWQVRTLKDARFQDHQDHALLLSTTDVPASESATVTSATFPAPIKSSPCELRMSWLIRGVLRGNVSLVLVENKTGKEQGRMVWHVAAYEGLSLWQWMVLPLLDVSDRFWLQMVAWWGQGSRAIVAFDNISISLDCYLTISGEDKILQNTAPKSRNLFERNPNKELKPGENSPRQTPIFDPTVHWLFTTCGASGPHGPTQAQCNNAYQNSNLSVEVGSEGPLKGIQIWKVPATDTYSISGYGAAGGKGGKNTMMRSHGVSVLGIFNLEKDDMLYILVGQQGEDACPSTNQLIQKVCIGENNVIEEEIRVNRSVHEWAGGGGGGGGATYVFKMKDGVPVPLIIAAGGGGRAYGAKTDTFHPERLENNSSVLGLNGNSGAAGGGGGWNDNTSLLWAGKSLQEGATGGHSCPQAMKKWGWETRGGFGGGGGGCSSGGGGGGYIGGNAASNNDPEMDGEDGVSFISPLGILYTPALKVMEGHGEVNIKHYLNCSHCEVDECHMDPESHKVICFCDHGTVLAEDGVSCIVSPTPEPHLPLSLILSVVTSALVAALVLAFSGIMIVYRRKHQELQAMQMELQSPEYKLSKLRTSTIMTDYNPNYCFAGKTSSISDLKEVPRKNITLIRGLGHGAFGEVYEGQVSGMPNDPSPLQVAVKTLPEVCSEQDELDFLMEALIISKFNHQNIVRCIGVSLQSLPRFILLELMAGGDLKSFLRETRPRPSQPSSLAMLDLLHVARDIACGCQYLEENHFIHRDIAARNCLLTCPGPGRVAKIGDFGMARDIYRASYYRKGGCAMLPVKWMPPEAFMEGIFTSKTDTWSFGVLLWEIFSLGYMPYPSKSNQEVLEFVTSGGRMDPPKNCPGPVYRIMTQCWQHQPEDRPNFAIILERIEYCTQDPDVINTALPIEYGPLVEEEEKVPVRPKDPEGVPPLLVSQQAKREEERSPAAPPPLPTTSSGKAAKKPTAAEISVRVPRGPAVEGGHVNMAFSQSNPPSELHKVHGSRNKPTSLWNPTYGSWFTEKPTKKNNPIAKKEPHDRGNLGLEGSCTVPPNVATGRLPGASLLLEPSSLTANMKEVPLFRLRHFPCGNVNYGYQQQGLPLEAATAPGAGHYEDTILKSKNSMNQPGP
Method: as §1, §2, §3, §4, §5, §6, §7

[15] = biological target: VEGFR-1 (Homo sapiens (Human), UniProt P17948); experiment: Enzyme selectivity test (ELISA), VEGFR-1; format: biochemical
VEGFR-1, sequence (P17948 27-1338, species assumed): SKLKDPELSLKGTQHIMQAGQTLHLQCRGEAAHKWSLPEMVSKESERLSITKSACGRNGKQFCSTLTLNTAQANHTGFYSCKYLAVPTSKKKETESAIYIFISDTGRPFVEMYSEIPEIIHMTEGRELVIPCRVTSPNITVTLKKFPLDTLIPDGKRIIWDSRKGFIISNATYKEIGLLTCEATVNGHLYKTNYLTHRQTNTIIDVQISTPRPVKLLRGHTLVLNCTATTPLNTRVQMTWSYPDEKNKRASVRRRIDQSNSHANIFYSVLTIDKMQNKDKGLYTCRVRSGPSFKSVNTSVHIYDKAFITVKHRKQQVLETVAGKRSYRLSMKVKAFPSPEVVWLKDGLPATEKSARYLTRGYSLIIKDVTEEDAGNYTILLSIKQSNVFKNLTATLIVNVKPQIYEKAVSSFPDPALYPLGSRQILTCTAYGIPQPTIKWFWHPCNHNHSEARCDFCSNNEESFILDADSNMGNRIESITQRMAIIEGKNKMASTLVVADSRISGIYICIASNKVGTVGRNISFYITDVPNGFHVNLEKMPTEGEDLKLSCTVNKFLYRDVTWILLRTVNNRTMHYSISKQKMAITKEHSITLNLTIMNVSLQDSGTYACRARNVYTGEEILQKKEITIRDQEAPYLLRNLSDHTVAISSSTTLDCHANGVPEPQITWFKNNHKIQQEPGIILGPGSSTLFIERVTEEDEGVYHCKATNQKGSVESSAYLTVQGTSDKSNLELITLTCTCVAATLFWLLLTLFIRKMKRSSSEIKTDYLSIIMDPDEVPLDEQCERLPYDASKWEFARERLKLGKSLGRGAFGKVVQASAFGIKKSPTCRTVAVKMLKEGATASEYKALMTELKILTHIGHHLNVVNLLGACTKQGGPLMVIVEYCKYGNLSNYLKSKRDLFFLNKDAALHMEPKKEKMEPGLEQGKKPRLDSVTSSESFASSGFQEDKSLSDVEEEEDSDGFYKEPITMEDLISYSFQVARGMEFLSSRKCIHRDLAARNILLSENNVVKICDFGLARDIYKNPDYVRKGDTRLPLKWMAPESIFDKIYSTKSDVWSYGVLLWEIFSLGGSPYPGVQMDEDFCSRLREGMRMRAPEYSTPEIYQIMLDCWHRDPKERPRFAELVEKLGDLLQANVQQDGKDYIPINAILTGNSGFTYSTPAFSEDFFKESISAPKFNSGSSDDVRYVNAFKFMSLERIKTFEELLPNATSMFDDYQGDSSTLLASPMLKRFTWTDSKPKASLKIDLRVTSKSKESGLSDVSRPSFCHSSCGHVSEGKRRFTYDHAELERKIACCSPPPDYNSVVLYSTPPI
Method: as §1, §2, §3, §4, §5, §6, §7

[16] = biological target: ErbB4 (Homo sapiens (Human), UniProt Q15303); experiment: Enzyme selectivity test (ELISA), ErbB4; format: biochemical
Method: as §1, §2, §3, §4, §5, §6, §7

[17] = biological target: ErbB2 (Homo sapiens (Human), UniProt P04626); experiment: Enzyme selectivity test (ELISA), ErbB2; format: biochemical
Method: as §1, §2, §3, §4, §5, §6, §7

[18] = tested on: kinases; experiment: Enzyme selectivity test, kinase panel overall; format: biochemical; settings: kinase panel of Table 5
Text: Except that the enzyme was different, other test methods and conditions were the same as the DDR2 enzyme activity test method in Effect example 1.

[19] = biological target: EGFR (Homo sapiens (Human), UniProt P00533); experiment: Enzyme selectivity test (ELISA), EGFR; format: biochemical
Method: as §1, §2, §3, §4, §5, §6, §7

[20] = biological target: FGFR-2 (Homo sapiens (Human), UniProt P21802); experiment: Enzyme selectivity test (ELISA), FGFR-2; format: biochemical
Method: as §1, §8, §6, §7

[21] = biological target: Met (Homo sapiens (Human), UniProt P08581); experiment: Enzyme selectivity test (ELISA), Met; format: biochemical
Method: as §1, §2, §3, §4, §5, §6, §7

[22] = biological target: Abl (Homo sapiens (Human), UniProt P00519); experiment: Enzyme selectivity test (ELISA), Abl; format: biochemical
Method: as §1, §2, §3, §4, §5, §6, §7

[23] = biological target: AXL (Homo sapiens (Human), UniProt P30530); experiment: Enzyme selectivity test (ELISA), AXL; format: biochemical
Method: as §1, §2, §3, §4, §5, §6, §7

[24] = tested on: bronchial epithelial cell line Beas-2B; experiment: Cytotoxic activity test (MTS), Beas-2B; format: cell-based, human; settings: 5 μM
Method: (§9) Experimental objective: The cytotoxic activity of compound S15 on bronchial epithelial cell line Beas-2B and lung fibroblast cell line MRC-5 was tested.
(§10) 1) The human bronchial epithelial cell line Beas-2B and the human embryonic lung fibroblast cell line MRC-5 were collected, and inoculated at a certain density (about 5000-10000 cells) on a 96-well plate (the edge wells were filled with sterile water or PBS). A control was set on each plate (100 μL of culture medium was added);
(§11) 2) The plate was incubated overnight at 37° C., 5% CO2. The plate was turned upside down and observed under the microscope.
(§12) 3) The solutions of different concentrations of the compounds to be tested were added to each well, and a control well (culture medium and MTS solution with cells but no drug) and a blank well (without cells, medium and MTS solution) were set, 3 to 5 repetition wells were set for each group. Incubation was performed at 37° C. for 48-72 hours.
(§13) 4) 10 μL/well of MTS/PMS (20:1, Promega Corp) solution was added to each well containing 100 μL of culture medium, and then the plate was gently shaken. The plate was incubated at 37° C. for 2 to 4 hours.
(§14) 5) M5 microplate reader (Molecular Device, USA) was used to measure the absorbance of the solution at 490 nm. […]

[25] = tested on: lung fibroblast cell line MRC-5; experiment: Cytotoxic activity test (MTS), MRC-5; format: cell-based, human; settings: 5 μM
Method: as §9, §10, §11, §12, §13, §14

[26] = tested on: mouse model of BLM-induced lung injury; experiment: Histopathological evaluation of lung sections, H&E staining; format: in vivo; settings: mice
Method: Experimental objective: This group of experiments aimed to investigate the therapeutic potential of the compound S15 in acute lung injury and inflammation induced by bleomycin (BLM).
Experimental grouping (8 mice per group):
Model group (BLM): the mice received BLM (1.7 U/kg) via intratracheal instillation;
Compound S15 group (S15): this group was divided into three dose groups, namely 30, 60 and 90 mg/kg;
Positive control group (Nintedanib): Nintedanib administration group;
Negative control group (Control): only saline was used.
1) Material acquisition: The fresh tissue was fixed in 4% paraformaldehyde for more than 24 hours. The tissue was removed from the fixative solution and trim the tissue at the target site. The trimmed tissue was marked and placed in the dehydration box for later use.
2) Dehydration: The dehydration box was put in the dehydrator and different concentration gradients of ethanol was used sequentially for dehydration. 75% ethanol (4 hours), 85% ethanol (2 hours), 90% ethanol (2 hours), 95% ethanol (1 hour), absolute ethanol I (30 minutes), absolute ethanol II (30 minutes), alcohol benzene (5-10 minutes), xylene I (5-10 minutes), xylene II (5-10 minutes), wax I (1 hour), wax II (1 hour), wax III (1 hour).
3) Embedment: The wax melted at high temperature was put into the embedding frame; before the wax was cooled and solidified, the tissue was taken out of the dehydration box, put into the embedding frame according to the requirements of the embedding surface, marked and cooled at −20° C. After completely solidified, the wax block was removed from the embedding frame and trimmed.
4) Section: The trimmed wax block was put on a paraffin microtome for sectioning. The section thickness was about 4 μm. The sections were floated on warm water at 40° C. of the flotation workstation and flatten. A glass slide was used to lift the tissue from the warm water, and put into a 60° C. oven for dryness. After the water was dried and the wax melted, the glass slide was taken out and stored at ambient temperature for later use. […]

DDR2, sequence (Q16832 563-849): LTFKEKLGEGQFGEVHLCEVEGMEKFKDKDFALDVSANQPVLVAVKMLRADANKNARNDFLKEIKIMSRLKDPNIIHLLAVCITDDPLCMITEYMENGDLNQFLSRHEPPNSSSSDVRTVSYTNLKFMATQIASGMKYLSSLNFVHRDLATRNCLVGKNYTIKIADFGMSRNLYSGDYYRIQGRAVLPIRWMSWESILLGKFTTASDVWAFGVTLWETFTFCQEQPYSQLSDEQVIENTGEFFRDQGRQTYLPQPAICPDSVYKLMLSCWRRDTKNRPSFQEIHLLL

CC(NC(=O)c1ccc(C2CC2)c(-c2ccc3nc(Nc4cnn(C5CC5)c4)ncc3c2)c1)c1cccc(C(F)(F)F)c1 (stereo not drawn) [Compound S16, 4-cyclopropyl-3-(2-((1-cyclopropyl-1H-pyrazol-4-yl)amino)quinazolin-6-yl)-N-(1-(3-(trifluoromethyl)phenyl)ethyl)benzamide]
IC50 [1]: 0.0383 ± 0.0028 µM | IC50 [2]: > 1 µM | IC50 [3]: > 1 µM | IC50 [4]: > 1 µM | IC50 [5]: > 1 µM | IC50 [6]: > 1 µM | IC50 [7]: > 1 µM | IC50 [8]: > 1 µM | IC50 [9]: > 1 µM | IC50 [10]: > 1 µM | IC50 [11]: > 1 µM | IC50 [12]: > 1 µM | IC50 [13]: > 1 µM | IC50 [14]: > 1 µM | IC50 [15]: > 1 µM | IC50 [16]: > 1 µM | IC50 [17]: > 1 µM | selectivity for kinases [18]: good selectivity | IC50 [19]: > 1 µM | IC50 [20]: > 1 µM | IC50 [21]: > 1 µM | IC50 [22]: > 1 µM | IC50 [23]: > 1 µM

COC(=O)c1ccc2c(c1)NC(=O)/C2=C(\Nc1ccc(N(C)C(=O)CN2CCN(C)CC2)cc1)c1ccccc1 [Nintedanib]
cytotoxic activity on Beas-2B [24]: significant cytotoxicity | cytotoxic activity on MRC-5 [25]: significant cytotoxicity | BLM-induced lung injury, H&E staining ([26]; Effect example 4, S15 30, 60, 90 mg/kg, Nintedanib 30 mg/kg, oral qd 12 days): improved significantly | BLM-induced lung injury, H&E staining ([26]; Effect example 7, 30 mg/kg oral qd 12 days): significantly improved
